Source: patent publication US5801197A, “Rotamase enzyme activity inhibitors” (GPI Nil Holdings, Inc., priority 1996, dated 1998)

Tests used:
[1] = test system: chick dorsal root ganglia; test: Neurite outgrowth in chick dorsal root ganglion cultures; type: cell-based; settings: for EC50: Gallus gallus, chick DRG explants, 48 h after drug treatment, read-out: ED50, Neurite Outgrowth in DRG cultures
Description: In the present work explants of chick dorsal root ganglia have been used, which are easier to employ in studies of nerve outgrowth.
Chick Dorsal Root Ganglion Cultures and Neurite Outgrowth
Dorsal root ganglia were dissected from chick embryos of ten day gestation. Whole ganglion explants were cultured on thin layer Matrigel-coated 12 well plates with Liebovitz L15 plus high glucose media supplemented with 2 mM glutamine and 10% fetal calf serum, and also containing 10 μM cytosine β-D arabinofuranoside (Ara C) at 37° C. in an environment containing 5% CO2. Twenty-four hours later, the DRGs were treated with various concentrations of nerve growth factor, immunophilin ligands or combinations of NFG plus drugs. Forty-eight hours after drug treatment, the ganglia were visualized under phase contrast or Hoffman Modulation contrast with a Zeiss Axiovert inverted microscope. Photomicrographs of the explants were made, and neurite outgrowth was quantitated. Neurites longer than the DRG diameter were counted as positive, with total number of neurites quantitated per each experimental condition. Three to four DRGs are cultured per well, and each treatment was performed in duplicate. Data from 6-10 different concentrations were used to generate dose-response curves, from which ED50 values were calculated.

rat dorsal root ganglia = settings: rat DRG explants, cited from earlier work
PC12 cells = settings: picomolar concentrations; cited from earlier work
[2] = test system: dorsal root ganglion cells (DRGs); settings: picomolar concentrations; sensory neurons; cited from earlier work
facial nerve injury = settings: whole animal experiments; cited from earlier work
sciatic nerve lesions = settings: whole animal experiments; cited from earlier work
[3] = test system: growth-associated protein-43 (GAP43); settings: cited from earlier work

## O=C(C(=O)N1CCCC[C@H]1C(=O)OCCCCC1CCCCC1)c1ccccc1 [Example 6]
[1]
  EC50: 10 to 20 nM

## C=CC[C@@H]1/C=C(\C)C[C@H](C)C[C@H](OC)[C@H]2O[C@@](O)(C(=O)C(=O)N3CCCC[C@H]3C(=O)O[C@H](/C(C)=C/[C@@H]3CC[C@@H](O)[C@H](OC)C3)[C@H](C)[C@@H](O)CC1=O)[C@H](C)C[C@@H]2OC [FK506]
Rat dorsal root ganglia; no NGF
  neurotrophic effects in the absence of NGF: neurotrophic effects were observed
Rat dorsal root ganglia
  lowest concentration with significant augmentation in nerve outgrowth: 1 picomolar
PC12 cells
  stimulation of neurite outgrowth: stimulate neurite out growth in PC12 cells
[2]
  stimulation of neurite outgrowth: stimulate neurite out growth in PC12 cells and sensory neurons
Facial nerve injury
  nerve regeneration following facial nerve injury: stimulate nerve regeneration following facial nerve injury
Sciatic nerve lesions
  functional recovery in animals with sciatic nerve lesions: functional recovery in animals with sciatic nerve lesions
[3]
  phosphorylation of GAP43: augments the phosphorylation

## COC(=O)C(=O)N1CCCC[C@H]1C(=O)OCCCC1CCCC1 [Example 10]
[1]
  EC50: > 10000 nM

## O=C(C(=O)N1CCCC[C@H]1C(=O)OC(CCCc1ccccc1)CCCc1ccccn1)c1ccccc1 (stereo partly shown) [Compound 18]
[1]
  EC50: 0.063 nM

## COC(=O)C(=O)N1CCCC[C@H]1C(=O)OCCCC1CCCCC1 [Example 9]
[1]
  EC50: > 10000 nM

## COc1cc(C(=O)C(=O)N2CCCC[C@H]2C(=O)OCCCCc2ccccc2)cc(OC)c1OC [Example 14]
[1]
  EC50: 1 to 5 nM

## O=C(C(=O)N1CCCC[C@H]1C(=O)OC(CCCc1ccccc1)CCCc1ccccc1)c1ccccc1 [Compound 20]
[1]
  EC50: 0.0044 nM

## O=C(C(=O)N1CCCC[C@H]1C(=O)OCCCc1ccccc1)c1ccccc1 [Example 2]
[1]
  EC50: 10 to 20 nM

## COc1cc(C(=O)C(=O)N2CCCC[C@H]2C(=O)OC(CCCc2ccccc2)CCCc2ccccn2)cc(OC)c1OC (stereo partly shown) [Compound 23]
[1]
  EC50: 25 nM

## COc1ccc(CCCCOC(=O)[C@@H]2CCCCN2C(=O)C(=O)c2cc(OC)c(OC)c(OC)c2)cc1 [Example 16]
[1]
  EC50: 0.03 nM

## CC(C)Oc1cccc(C(=O)C(=O)N2CCCC[C@H]2C(=O)OC(CCCc2ccccc2)CCCc2cccnc2)c1 (stereo partly shown) [Compound 25]
[1]
  EC50: 0.3 nM

## COc1cc(C(=O)C(=O)N2CCCC[C@H]2C(=O)OCc2cccc(Oc3ccccc3)c2)cc(OC)c1OC [Example 13]
[1]
  EC50: 0.18 nM

## COc1ccc(CCC(CCCc2ccccc2)OC(=O)[C@@H]2CCCCN2C(=O)C(=O)c2ccccc2)cc1 (stereo partly shown) [Compound 19]
[1]
  EC50: 10 to 20 nM

## O=C(C(=O)N1CCCC[C@H]1C(=O)OCCCCc1ccccc1)c1ccccc1 [Example 4]
[1]
  EC50: 25 to 100 nM

## O=C(C(=O)N1CCCC[C@H]1C(=O)OC(CCCc1ccccc1)CCCc1cccnc1)c1ccccc1 (stereo partly shown) [Compound 17]
[1]
  EC50: 1 to 5 nM

## O=C(C(=O)N1CCCC[C@H]1C(=O)OCc1ccccc1)c1ccccc1 [Example 1]
[1]
  EC50: 25 to 100 nM

## COc1cc(C(=O)C(=O)N2CCCC[C@H]2C(=O)OC(CCCc2ccccc2)CCc2cccnc2)cc(OC)c1OC (stereo partly shown) [Compound 22]
[1]; 1 nM
  neurite outgrowth in cultured sensory neurons (photomicrograph): responding to trophic effects
[1]
  EC50: 0.95 nM

## COc1cc(C(=O)C(=O)N2CCCC[C@H]2C(=O)OC(CCCc2ccccc2)CCCc2ccccc2)cc(OC)c1OC [Compound 21]
[1]; FIG. 3, cultured sensory neurons
  dose-dependence of neurotrophic effects in neuronal cultures: dose-dependent neurotrophic effects
[1]
  EC50: 0.61 nM

## COC(=O)C(=O)N1CCCC[C@H]1C(=O)OCc1ccccc1 [Example 7]
[1]
  EC50: > 10000 nM

## COC(=O)C(=O)N1CCCC[C@H]1C(=O)OCCCCC1CCCCC1 [Example 8]
[1]
  EC50: > 10000 nM

## COc1cc(C(=O)C(=O)N2CCCC[C@H]2C(=O)OCCCCC2CCCCC2)cc(OC)c1OC [Example 12]
[1]
  EC50: 0.031 nM

## O=C(C(=O)N1CCCC[C@H]1C(=O)OCc1ccccc1)c1ccco1 [Example 11]
[1]
  EC50: 1000 nM

## CO[C@H]1C[C@@H]2CC[C@@H](C)[C@@](O)(O2)C(=O)C(=O)N2CCCC[C@H]2C(=O)O[C@H]([C@H](C)C[C@@H]2CC[C@@H](O)[C@H](OC)C2)CC(=O)[C@H](C)/C=C(\C)[C@@H](O)[C@@H](OC)C(=O)[C@H](C)C[C@H](C)/C=C/C=C/C=C/1C [rapamycin]
PC12 cells
  stimulation of neurite outgrowth: stimulate neurite out growth in PC12 cells
[2]
  stimulation of neurite outgrowth: stimulate neurite out growth in PC12 cells and sensory neurons

## COc1ccc(CCCC(CCCc2ccccc2)OC(=O)[C@@H]2CCCCN2C(=O)C(=O)c2cc(OC)c(OC)c(OC)c2)cc1 (stereo partly shown) [Compound 24]
[1]
  EC50: 0.5 nM

## COc1cc(C(=O)C(=O)N2CCCC[C@H]2C(=O)OCCCc2c[nH]c3ccccc23)cc(OC)c1OC [Example 15]
[1]; 300 pM
  neurite outgrowth in cultured sensory neurons (photomicrograph): stimulation of neurite outgrowth
[1]
  EC50: 0.055 nM

## O=C(C(=O)N1CCCC[C@H]1C(=O)OCCc1ccccc1)c1ccccc1 [Example 5]
[1]
  EC50: 25 to 100 nM

## COc1ccc(CCCCOC(=O)[C@@H]2CCCCN2C(=O)C(=O)c2ccccc2)cc1 [Example 3]
[1]
  EC50: 0.5 nM
